Reference: US6583132B1, “Oxidant scavengers” (Duke University, priority 1993, dated 2003)

Assays:
rat cortical cells = test: Neurotoxicity (LDH release) in cortical cell culture; type: cell-based
Description: Tissue culture: Mixed neuronal and glial cultures were prepared from embryonic day-18 rat cerebral cortices (Sprague-Dawley, Zivic Miller). Briefly, the cerebral cortices were dissected and enzymatically dissociated by incubation in Ca^++-, Mg^++-free Hank's balanced salt solution (HBSS) supplemented with 10 mM HEPES and 0.25% trypsin for 20 min. at 37° C. The tissue was rinsed and dispersed into single cell suspension by gentle passage through a fire polished Pasteur pipette. The cell suspension was centrifuged and resuspended in Minimum Essential Media (MEM), containing Earle's salts supplemented with 3 g/L glucose, 5% horse serum and 5% fetal bovine serum (growth media). The cells were plated in poly-D-lysine-coated multi-well plates: 12-well plates for aconitase measurement, and 24 well plates for toxicity experiments. Cells were maintained at 37° C. in a humidified incubator with 5% CO2/95% air in growth media. Media was not replaced so as to reduce glial overgrowth and neuronal loss. Mature cells (14-17 days in vitro) were used for all experiments.
Cell treatment: The growth media was replaced with MEM supplemented with 25 mM glucose (MEM-g). For both neurotoxicity studies and aconitase measurement, cells were incubated in the designated treatment for the indicated length of time at 37° C. Unless otherwise specified, antagonists or SOD-mimetics were added 15 min. prior to agonists. For measurement of neurotoxicity, cells were incubated with treatments for 18 hr at 37° C. in MEM-g. To access the ability of antagonists to inhibit acute NMDA toxicity or rescue cells from an ongoing NMDA insult, an alternate paradigm of NMDA treatment was used in addition to the one describe above. In this paradigm, growth media was replaced with HBSS^+ (Ca^++-, Mg^++-free Hank's Balanced Salt Solution supplemented with 2 mM CaCl2, 1 mM NaHCO3, 10 mM HEPES and 5 μM glycine), cells were treated with vehicle or 100 μM NMDA for 15 min. after which HBSS^+ was replaced with MEM-g and cells were returned to the incubator for 18 additional hrs. Antagonsists or SOD-mimetics were added to the cells 15 min. before NMDA exposure or 15, 30 or 60 min. following final media replacement. For determination of Ca^++-dependence, cells were incubated in HBSS^+ with no added Ca^++. When kainate (KA) was used as an agonist, 100 μM D-APV was routinely included to block secondary NMDA receptor activation. Catalase (100 U/ml) was always included when xanthine plus xanthine oxidase (X+XO) was used as a treatment to rule out the contribution of hydrogen peroxide.
(§1) Neurotoxicity studies: Neurotoxicity was determined by the measurement of LDH released in the supernatant media as previously described (Patel et al, Toxicol. Appl. Pharmacol. 115:124 (1991) and Neurotoxicology 14:35 (1992)). LDH was measured by the method of Vassault, Lactate dehydrogenase. In: Methods of Enzymatic Analysis, Bergmeyer HU (ed), Verlag Chemie, Weinheim, pp. 118-126 (1983). Additionally, cell death was confirmed with ethidium-1 homodimer (EthD-1). Briefly, the cells were washed with HBSS, loaded with 20 μM EthD-1 for 30 min,. rinsed and viewed through fluorescence optics. The number of dead cells labeled with EthD-1 were counted in 4-6 randomly selected fields, the numbers averaged to give an estimate of cell death and the experiment was repeated 3 times.

Cortical cells = test: Cell death of cortical cells by EthD-1 staining; type: cell-based, rat; conditions: concentration-response curves
Description: Tissue culture: Mixed neuronal and glial cultures were prepared from embryonic day-18 rat cerebral cortices (Sprague-Dawley, Zivic Miller). Briefly, the cerebral cortices were dissected and enzymatically dissociated by incubation in Ca^++-, Mg^++-free Hank's balanced salt solution (HBSS) supplemented with 10 mM HEPES and 0.25% trypsin for 20 min. at 37° C. The tissue was rinsed and dispersed into single cell suspension by gentle passage through a fire polished Pasteur pipette. The cell suspension was centrifuged and resuspended in Minimum Essential Media (MEM), containing Earle's salts supplemented with 3 g/L glucose, 5% horse serum and 5% fetal bovine serum (growth media). […]
as §1, with “In: Methods of Enzymatic Analysis, Bergmeyer HU (ed), Verlag Chemie, Weinheim, pp. 118-126 (1983). Additionally, cell death was confirmed with ethidium-1 homodimer (EthD-1).” left out

[1] = tested on: calf pulmonary artery endothelial cell cultures (CPA-47); test: Paraquat-induced injury of CPA-47 cells, LDH release; type: cell-based; conditions: varying concentrations; Paraquat 2 mM, 24 hours
Description: Calf pulmonary artery endothelial cell cultures (CPA-47) were grown to confluence in Ham's F-12K medium with 10% fetal bovine serum at pH 7.4 and 37° C. Cells were then trypsinized and seeded at equal densities in 24 well plates and grown to 90% confluence. Cells were washed and pre-incubated for 1 hour with varying concentrations of ZnTBAP in MEM or MEM only. Paraquat (2 mM) was added and allowed to incubate for 24 hours. Cell injury was quantitated by measuring the release of cellular lactate dehydrogenase (LDH) into the medium.

J774 macrophages = test: Mitochondrial respiration (MTT) in J774 macrophages; type: cell-based
Description: Cell culture: J774 macrophages were cultured in DMEM medium, supplemented with L-glutamine (3.5 mmol/L) and 10% fetal calf serum. Cells were cultured in 96-well plates (200 μl medium/well) until confluence. To induce the inducible isoform of nitric oxide synthase (iNOS), fresh culture medium containing E. coli LPS (011:B4, 10 μg/ml) alone or in combination with murine γ-interferon (γ-IFN, 10 U/ml) was added in the presence or absence of the NOS inhibitor, the SOD mimetic of the combination of the two compounds for 24 h. Moreover, cells were exposed to the NO donor compounds S-nitroso-N-acetyl-DL-penicillamine (SNAP) (3 mM) and diethylamine:NO NONOate (DNO) (3 mM) for 24 h or to authentic peroxynitrite (1 mM) for 1 h). Nitride/nitrate concentration in the medium and mitochondrial respiration were then measured as described below.
Measurement of mitochondrial respiration: Cell respiration was assessed by the mitochondrial-dependent reduction of 3-(4,5-dimethylthiazol-2-yl)-2,5-diphenyltetrazolium bromide (MTT) to formazan. Cells in 96-well plates were incubated at 37° C. with MTT (0.2 mg/ml) for 1 hour. Culture medium was removed by aspiration and the cells were solubilized in DMSO (100 μl). The extent of reduction of MTT to formazan within cells was quantitated by the measurement of OD550. All measurements were corrected for the interference of MnTBAP at this wavelength.

Substance: Mn(III) tetrakis (4-benzoic acid)porphyrin [MnTBAP]
- PQ^++-, NMDA- and KA-mediated cell death (LDH release) (rat cortical cells; 200 μM MnTBAP, 18 hr): markedly inhibited
- shift of concentration-response curve for NMDA (LDH) (rat cortical cells; 200 μM MnTBAP, 18 hr): complete protection at low concentrations of NMDA
- reduction of LDH release (rat cortical cells; 200 μM added 30 min. after 15 min. 100 μM NMDA): 30%
- reduction of LDH release (rat cortical cells; 200 μM added 60 min. after 15 min. 100 μM NMDA): 25%
- reduction of LDH release / protective effect (rat cortical cells; added 15 min. after 15 min. 100 μM NMDA, 200 μM MnTBAP, 10 μM MK801): 38%
- reduction of LDH release (rat cortical cells; condition "pre": 15 min. prior to and during 15 min. 100 μM NMDA, measured 18 hr. later): 25%
- reduction of LDH release (rat cortical cells; condition "pre+post", 100 μM NMDA 15 min.): 51%
- neuroprotective effects against PQ^++, NMDA and KA toxicities (Cortical cells): markedly increased neuroprotective effects in comparison to ZnTBAP
- paraquat-induced LDH release / injury [1]: decreases paraquat-induced LDH release in a dose-dependent manner
- suppression of mitochondrial respiration by peroxynitrite (J774 macrophages; 1 mM peroxynitrite, 1 h): partially and dose dependently prevented
- immunostimulation-induced suppression of mitochondrial respiration (J774 macrophages; LPS-treated and LPS and IFN-treated cells, 24 h): dose-dependent, partial restoration
- suppression of mitochondrial respiration by NO donors SNAP and DNO (J774 macrophages; SNAP, DNO 3 mM, 24 h): partially and dose dependently prevented
